Results on one molecule are retold here after US10751337B2, “Preservative free ocular compositions and methods for using the same for treating dry eye disease and other eye disorders” (The Board of Trustees of the University of Illinois, priority 2015, dated 2020).

In data set [1] the test system is mixed dry eye disease (severe tear deficiency Meibomian gland dysfunction (MGD)). The settings on record: one patient.
Data set [2] relates to Meibomian gland dysfunction (MGD) in patients with chronic ocular Graft-Versus-Host-Disease (oGVHD). As to the kind of experiment: Treatment of chronic ocular GVHD patients with Meibomian gland dysfunction, SGA and CGI assessment (Example 2).
For data set [3], the system named is Non-Sjogren dry eye syndrome (Meibomian gland dysfunction). As to the kind of experiment: Treatment of a patient with non-Sjogren dry eye syndrome, MGD not due to ocular GVHD (Example 4). The settings on record: person, 0.15% twice a day.
The next data set concerns Sjogren dry eye syndrome. As to conditions: person; 0.15% twice a day in both eyes.
Data set [4] has as its system Evaporative dry eye (EDE) attributable to LASIK refractive surgery. As to conditions: person after LASIK; eye drops 0.15% in both eyes; most recent follow up. From the text:
The patient treated was a person with severe symptoms of ocular discomfort. The patient had undergone LASIK refractive surgery in both eyes. The prior treatment history was that the patient was on doxycycline pills, warm compresses, erythromycin ointment and intermittently on steroid eye drops. […] The patient instilled the eye drops on the surface of the eye and spread the excess eye drops to both eye lid margins.

The mark [5] stands for this setting: ocular GVHD patients with MGD, summary statement.

On to `Brc1c(NC2=NCCN2)ccc2nccnc12` [brimonidine, 5-Bromo-N-(4,5-dihydro-1H-imidazol-2-yl) quinoxalin-6-amine], for which the “conjunctival and eyelid margin redness” value in data set [1] (0.15% aqueous solution twice a day to eyelash and eyelid margin area, 15 minutes after application) is “significant reduction”. In addition, the “patient-reported symptoms of ocular discomfort” value in data set [1] (0.15% aqueous solution twice a day, after applying) was “reduced”. In data set [2] (18 patients (n=2), 0.15% twice a day), the “patients who did not report any change (SGA)” value was 11%. The “patients who reported improvement (SGA)” value in data set [2] (18 patients (n=6), 0.15% twice a day) is 33%. Further, in data set [2] (18 patients (n=10), 0.15% twice a day), the “patients who reported much improvement (SGA)” value came out at 55%. In data set [2] (18 patients (n=15), 0.15% twice a day), the “patients with moderate to marked improvements in CGI” value is reported as 83%. For the same molecule, in data set [2] (18 patients, 0.15% twice a day), the “patients clinically worsened (CGI)” value is “No patients had clinically worsened”, the “patients reporting worsening of symptoms or signs (SGA)” value is “No patients reported worsening of symptoms or signs” and the “tolerability of the eye drops” value is “easily tolerated”. Further, the “Subjective Global Assessment (SGA), mean (±SD)” value in data set [2] (18 patients, five point scale (Much worse to Much improved), 0.15% one drop twice a day, followed 6 months or more) was 4.4±0.69. Also, the “Clinical Global Impression (CGI), mean (±SD)” value in data set [2] (18 patients, seven point scale (Marked worsening to Marked improvement), 0.15% twice a day) came to 6.2±0.88. In data set [2] (setting [5]), the “patients tested with a beneficial effect” value is given as “approximately 90%” and the side effects entry is listed as “without significant side effects”. In data set [3], the side effects entry is “No side effects were reported” and the “tolerability of the drops” value is reported as “tolerated well”. Besides, in data set [3] (most recent follow up), the “patient-reported redness of both eyes” value is “reduction in redness of both eyes”; the “patient-reported symptoms of dryness and burning” value was “reduction in symptoms of dryness and burning”. Moreover, the “patient-reported symptoms and redness” value with Sjogren dry eye syndrome was “improvement in symptoms and redness”. Also, the “patient-reported improvement of symptoms since starting treatment” value in data set [4] was 90%.
